Values of other authors in patent US20070082339A1, “Methods and compositions for screening for HDAC inhibitory activity” (priority 2005, published 2007).

System: BID
Settings: T cell leukemia cells; independently of caspase activity; cited from earlier work

**Q.** For O=C(CCCCCCC(=O)Nc1ccccc1)NO [SAHA], which BID cleavage is on record?
**A.** cleaved
